Laboratory results taken from paper PMC8151848, “Tambjamines and Prodiginines: Biocidal Activity against Trypanosoma cruzi” (Pharmaceutics, 2021).
≈ marks a conversion by molar mass, not a printed value. Read-outs that look alike come from different tables or passages of the source.

Assays:
[1] = test system: different parasites; parameters: method as in PMID 32196500; conditions: cited from earlier work
[2] = POPC vesicles, ref 2 (Gianotti et al., Int. J. Mol. Sci., 2020), cited from earlier work
[3] = test system: murine L-929 fibroblasts (NCTC clone 929); assay: Cytotoxicity assay (resazurin) in L-929 fibroblasts; assay type: cell-based, mouse; conditions: Mus musculus, L929; read-out: IC50 (µM) L-929 cell growth inhibition
Text: (§1) Mouse L-929 fibroblasts (NCTC clone 929, ECACC 88102702) were used for both drug toxicity and infection assays. Cell line was obtained from Dr. Concepció Soler, Dept. Pathology & Experimental therapeutics, Faculty of Medicine and Health Sciences, University of Barcelona, Spain. Human hepatocarcinoma Hep G2 cells (American Type Culture Collection (ATCC HB-8065)) were employed only in the drug toxicity assays and were obtained from Dr. Neus Agell, Cell Biology Research Group, Faculty of Medicine and Health Sciences, University of Barcelona, Spain.
(§2) Cells were seeded by trypsinization in 96-well microplates (L-929: 4 × 10^3 cells/well; Hep G2: 1.5 × 10^4 cells/well) and incubated for 24 h at 37 °C to allow cell attachment. On the following day, the medium was discarded and replaced with a fresh medium containing the different concentrations of the drugs. Hep G2 cells were treated with concentrations of 100, 10, and 1 µM of the different drugs, while L-929 cells were treated with a wider range of concentrations in order to calculate the IC50 value (the drug concentration that inhibits 50% of cell growth). Medium, growth, and drug blanks were used in each test as controls. Plates were incubated again for another 24 h. After treatment, 20 µL of resazurin diluted in 1X phosphate-buffered saline (PBS; Sigma Aldrich) was added at a final concentration of 70 µM. The plates were incubated for another 24 h, after which fluorescence was measured in a microplate reader (FLUOstar OPTIMA, BMG LABTECH GmbH, Ortenberg, Germany) at an excitation wavelength of 530 nm and an emission wavelength of 590 nm. Each concentration was tested in triplicate and the experiments were repeated three times independently. Results indicated the percentage of toxicity (% T value). (3) % Toxicity=100−(AE−AEB)/(AC−ACB)×100 where AE is the absorbance of the experimental group, AEB the absorbance of the drug blank, AC the absorbance of the untreated cells, and ACB the absorbance of the culture medium blank. For the L-929 fibroblasts, the IC50 values (the drug concentration that inhibits 50% of cell growth) were calculated for each compound using the GraphPad Prism software.

[4] = as above; assay type: cell-based, mouse; conditions: mouse, L-929 fibroblasts (NCTC clone 929); L-929, 16 µM, n = 9; read-out: % Cytotoxicity ± SD
Text: as §1, §2

[5] = test system: epimastigotes of T. cruzi (CL strain, clone B5); assay: Epimastigote susceptibility assay (monotherapy); assay type: cell-based, Trypanosoma cruzi; conditions: for IC50: Trypanosoma cruzi, CLB strain, 72 h at 28 °C, mean ± SD, read-out: IC50 (µM) in epimastigotes of T. cruzi; for activity against the extracellular and replicative forms of T. cruzi (in words): epimastigotes
Procedure: The CL-B5 strain was stably transfected with the Escherichia coli β-galactosidase gene (lacZ) and routinely maintained in exponential growth by weekly passages. Trypomastigotes of the CL-B5 strain were obtained as previously reported.
The screening assays were performed in 96-well microplates (WWR Int LLC) containing serially diluted concentrations of each compound and seeded with 2.5 × 10^5 epimastigotes/mL harvested during the exponential growth phase. Growth, medium, and drug blanks were used in each assay as controls. An internal control of the reference drug, benznidazole, was also included. After 72 h at 28 °C, 50 µL of the substrate chlorophenol red-β-D-galactopyranoside (CPRG; Roche) diluted in 0.9% Triton X-100 solution (EMD, Darmstadt, Germany) were added at a final concentration of 200 µM. Then, after 3 h at 37 °C, measurements were performed in a scanning multiwell spectrophotometer (ELISA Multiskan Reader, BioTek Instruments, Inc., Winooski, VT, USA) at 595 nm. Each concentration was tested in triplicate and the experiments were performed three times independently. The efficacy of the compounds was calculated by determining the percentage of epimastigote growth (% EG value) as follows:(1) % Epimastigote growth=(AE−AEB)/(AC−ACB)×100 where AE is the absorbance of the experimental group, AEB the absorbance of the drug blank, AC the absorbance of the control group, and ACB the absorbance of the culture medium blank. The IC50 values (the drug concentration that eliminates 50% of the parasites) were determined for each compound using the GraphPad Prism software (Version 5.0.0 for Windows, GraphPad Software, San Diego, CA, USA).

[6] = test system: Plasmodium yoelii; parameters: method as in PMID 26305125; conditions: murine model; cited from earlier work
[7] = test system: Pseudomonas aeruginosa; conditions: cited from earlier work
[8] = Transmembrane anion transport (chloride efflux) in POPC vesicles; conditions: for anionophore activity (in words): chloride efflux
Procedure: The transmembrane anion transport activity of the compounds was explored in phospholipid (1-palmitoyl-2-oleoyl-sn-glycero-3-phosphocholine (POPC)) vesicles. Chloride efflux from chloride loaded vesicles was monitored using a chloride selective electrode. A solution of the studied compound in DMSO, usually 5 µL to avoid the influence of the organic solvent during the experiments, was added, and once the experiment was finished, a surfactant (Triton-X, 10% dispersion in water, 20 µL) was used to lyse the vesicles and release all the encapsulated chloride. This value was taken as 100% release and used as such. The experiments were repeated using different concentrations of the studied compounds and normalized chloride efflux at […] against the concentration of compound plotted. The data were then fitted with the Hill equation and an EC50 parameter, representing the concentration of compound eliciting 50% of chloride release was calculated. Assays in which the external medium was nitrate or bicarbonate were performed.

[9] = test system: Escherichia coli; conditions: cited from earlier work
[10] = test system: Enterococcus faecalis; conditions: cited from earlier work
[11] = test system: epimastigotes of T. cruzi (CL strain, clone B5); parameters: method as in PMID 31210760; conditions: read-out: IC50 against epimastigotes of T. cruzi (earlier study); cited from earlier work
[12] = external bicarbonate, read-out: EC50 (µM) HCO3–/Cl–
[13] = external nitrate, read-out: EC50 (µM) NO3–/Cl–

Structure (SMILES): CC1(C)CCC(CN2CCN(c3ccc(C(=O)NS(=O)(=O)c4ccc(NCC5CCOCC5)c([N+](=O)[O-])c4)c(Oc4cnc5[nH]ccc5c4)c3)CC2)=C(c2ccc(Cl)cc2)C1 [venetoclax]
- effect on the viability of different parasites (in words) [1]: do not have an effect

Structure (SMILES): CCCCn1cc(-c2cc(OC)c(/C=C3\N=C(C)C=C3C)[nH]2)nn1 [EH123]
- EC50 [2, 12]: 1.91 µM
- EC50 [2, 13]: 0.024 µM
- IC50 [3]: 171.7 ± 0.5 µM
- cytotoxicity at 24 h, 16 µM [4]: 3.72 ± 1.14%
- Selectivity index (SI), Epimastigotes ([5]; IC50 for L-929 fibroblasts / IC50 for T. cruzi epimastigotes): 0.86
- IC50 [5]: 199 ± 49.9 µM
- activity against the extracellular and replicative forms of T. cruzi (in words) [5]: did not show detectable levels of trypanocidal activity

Structure (SMILES): CC1(C)CCC(c2ccc(Cl)cc2)=C(CN2CCN(c3ccc(C(=O)NS(=O)(=O)c4ccc(N[C@H](CCN5CCOCC5)CSc5ccccc5)c(S(=O)(=O)C(F)(F)F)c4)cc3)CC2)C1 [navitoclax]
- effect on the viability of different parasites (in words) [1]: do not have an effect

Structure (SMILES): CCc1c(-c2ccc[nH]2)[nH]c(C=NC2CCCCCC2)c1C [KAR425]
- in vivo activity against P. yoelii infection (in words) [6]: potent in vivo activity

Structure (SMILES): CCCCCC1=C/C(=C/c2[nH]c(-c3ccc[nH]3)cc2OC)N=C1C [Prodigiosin, prodigiosin]
- minimal inhibitory concentration (MIC) [7]: 8 µM (≈ 2.59 µg/mL)
- anionophore activity (in words) [8]: most active anionophore
- EC50 [8, 12]: 0.06 µM
- EC50 [8, 13]: 0.002 µM
- minimal inhibitory concentration (MIC) [9]: 2 µM (≈ 0.647 µg/mL)
- minimal inhibitory concentration (MIC) [10]: 2 µM (≈ 0.647 µg/mL)
- IC50 [11]: ≤ 800 nM

Structure (SMILES): CC/N=C/c1[nH]c(-c2ccc[nH]2)c(CC)c1C [MM5]
- anionophore activity (in words) [8]: very limited activity
- EC50 (µM) HCO3–/Cl– ([8]; external bicarbonate): not active enough to calculate EC50 value
- EC50 (µM) NO3–/Cl– ([8]; external nitrate): not active enough to calculate EC50 value
- IC50 [5]: 130 ± 34.7 µM
- activity against the extracellular and replicative forms of T. cruzi (in words) [5]: did not show detectable levels of trypanocidal activity

Structure (SMILES): Cc1nn(C)c(COc2ccc(N3CCN(S(=O)(=O)N(C)C)CC3)cc2)c1-c1cccc2c(CCCOc3cccc4ccccc34)c(C(=O)O)n(CCN3CCOCC3)c12 [Compound A-1210477]
- effect on the viability of different parasites (in words) [1]: do not have an effect

Structure (SMILES): Cc1c(-c2ccc(N3CCc4cccc(C(=O)Nc5nc6ccccc6s5)c4C3)nc2C(=O)O)cnn1CC12CC3CC(CC(C3)C1)C2 [Compound A-1331852]
- effect on the viability of different parasites (in words) [1]: do not have an effect

Structure (SMILES): Cc1c(-c2c(-c3ccc(F)o3)sc3ncnc(O[C@H](Cc4ccccc4OCc4ccnn4CC(F)(F)F)C(=O)O)c23)ccc(OCCN2CCN(C)CC2)c1Cl [Compound S63845]
- effect on the viability of different parasites (in words) [1]: do not have an effect
